For data set [1] the following is noted: 298.15 K; 101.33 kPa; Liquid; Vibrating tube method.
The nature of data set [2]: wn = mass fraction of the nth substance listed. As to conditions: 298.15 K; 100 kPa; Liquid; Vibrating tube method; w2 = 0.089.

Each structure is given as a SMILES string. Numbers after ± are expanded uncertainties.

Take `CCCC[n+]1ccn(C)c1.O=S(=O)([N-]S(=O)(=O)C(F)(F)F)C(F)(F)F`: in data set [1], the mass density is on record as 1436.46 ± 10 kg/m3.

With `CC(O)C(=O)O` (centres undefined) [2-hydroxypropanoic acid], the mass density in data set [1] is given as 1202.57 ± 35 kg/m3.

Take `CC(O)C(=O)O` (centres undefined) [2-hydroxypropanoic acid] + O: in data set [2], the mass density is 1202.57 ± 10 kg/m3.

For `CC(=O)CCC(=O)O` [4-oxopentanoic acid], the mass density in data set [1] was determined as 1135.71 ± 10 kg/m3.

A word on the mass density: it is the mass of a sample divided by its volume.

The values above are taken from the NIST ThermoML archive (doi:10.1021/acs.jced.9b00041).
